Laboratory results published in patent US11020488B2, “Pyrroloquinolin compounds and methods of using same” (The Regents of the University of California, priority 2017, dated 2021).
Where two headings read alike, the source gives them in different places.

Assays:
PANC-1 cell line [1] = assay: cells; details: for fold decrease in PANC-1 potency (PP<) relative to makaluvamine J (9) / fold decrease in PANC-1 potency (PP<) relative to makaluvamine A (1): '<' in PP codes a decrease in potency; for PANC-1 cytotoxic potency (words): PANC-1 (set of b111: PANC-1 and/or OVCAR tumor cells)
From the text: The task of IC50 assessment for the natural products isolated in this study against the PANC-1 tumor cells line began immediately following the purification and characterization of each pyrrolo[4,3,2-de]quinoline obtained (FIG. 3). […] However, a sample of ammosamide B (17) was obtained from the NCI Molecular Targets Laboratory. Two additional clinically used compounds, etoposide and teniposide were also run in the assay.
The soft agar disk diffusion assay, IC50 determination, and clonogenic assay were performed as previously described.

OVCAR-5 [2] = assay: IC50 determination against OVCAR-5 ovarian cancer cell line; assay type: cell-based, human; details: for IC50: OVCAR-5, values of the text
Procedure: The soft agar disk diffusion assay, IC50 determination, and clonogenic assay were performed as previously described [35].

PANC-1 cell line [3] = details: cited from earlier work; for IC50: read-out: PANC-1 IC50, PANC-1, literature data, refs [25], [26], [30]
OVCAR-3 = details: first value of OVCAR-3/-5 cell, refs [9], [38], NCI-DTP database; cited from earlier work
KB xenografts = details: KB mouse model xenografts, ref [9]; cited from earlier work
OVCAR-5 [4] = details: second value of OVCAR-3/-5 cell, ref [9], NCI-DTP database; cited from earlier work
HCT-116 cells = assay: Clonogenic dose-response assay, continuous exposure; assay type: cell-based
From the text: FIG. 7 Evaluation of makaluvamine J (9) through clonogenic dose-response evaluation employing HCT-116 cells. Continuous exposure of the cells with 9 at different concentrations during periods of: 2 hr, 24 hr, or 120 hr. Efficacy is indicated when the surviving fraction is less than 0.1.
Accurate determination of the exposures required to achieve a useful in vivo therapeutic effect is the outcome being sought through clonogenic study. Illustrated here are data measuring the cytotoxic effect of makaluvamine J (9) at varying concentrations during continuous exposure. Other relevant data to be obtained in the future consists of: (a) repeating the clonogenic runs on makaluvamine acetate J (15), (b) obtaining the maximum tolerated dose (MTD) for both, and (c) assessing the pharmacokinetic behavior of these compounds measured in both plasma and tumors, (PANC-1 and OVC-5) at the MTD which will be tracked through by MS^2 data. The key measurement involved determining the required time-concentration profile to obtain a 90% kill (10% survival-S10) of tumor cells. […] At this juncture it appears that a chronic exposure for five days will be effective and the exact therapeutics regime will depend on the MTD determination data and future pharmacokinetic results.

[5] = read-out: PANC-1 IC50, PANC-1 pancreatic tumor cell line
[6] = Homo sapiens, PANC-1, read-out: PANC-1 IC50, PANC-1 pancreatic tumor cell line

Molecule: 8,15-O-diacetyl-8-hydroxy-5a,7,8a-trien-makaluvamine J
- fold decrease in PANC-1 potency (PP<) relative to makaluvamine J (9) (PANC-1 cell line [1]; ratio of PANC-1 IC50): ~10 fold
- IC50 (PANC-1 cell line [1]; [5]): 590 nM

Molecule: 9-N-acetyl makaluvamine B [9-N-acetyl makaluvamine B (14)]
- fold decrease in PANC-1 potency (PP<) relative to makaluvamine A (1) (PANC-1 cell line [1]; ratio of PANC-1 IC50): > 200 fold
- IC50 (PANC-1 cell line [1]; [5]): 91000 nM

Molecule: 15-O-acetyl makaluvamine J [15-O-acetyl makaluvamine J (15)]
- PANC-1 cytotoxic potency (words) (PANC-1 cell line [1]): most potent IC50 values
- fold decrease in PANC-1 potency (PP<) relative to makaluvamine J (9) (PANC-1 cell line [1]; ratio of PANC-1 IC50): 1.5 fold
- IC50 (PANC-1 cell line [1]; [5]): 81 nM
- IC50 (OVCAR-5 [2]): 8.6 nM
- fold increase in OVCAR-5 potency over makaluvamine J (9) (OVCAR-5 [2]; ratio of OVCAR-5 IC50): 14 fold

Molecule: O=C1C(NCc2ccc(F)cc2)=CC2=NCCc3c[nH]c1c32 [FBA-TBQ (18), 7-(4-fluorobenzylamino)-1,3,4,8-tetrahydropyrrolo[4,3,2-de]quinolin-8(1H)-one, reference compound]
- less potent than makaluvamine J (9) against PANC-1 (PANC-1 cell line [1]; comparison of PANC-1 IC50 with 9): ~50%
- cytotoxicity against PANC-1 cells (words) (PANC-1 cell line [3]): moderate cytotoxicity
- IC50 (PANC-1 cell line [3]): 110 nM
- IC50 (OVCAR-3): 950 nM

Molecule: CN1C(=O)c2cc(C(N)=O)nc3c(N)c(Cl)c(N)c1c23 [ammosamide B (17), ammosamide B, reference compound]
- IC50 (PANC-1 cell line [1]; [5]): 26000 nM

Molecule: CN1CCc2cn(C)c3c2C1=CC(=O)C3=O [damirone A (5), damirone A]
- IC50 (PANC-1 cell line [1]; [5]): 160000 nM

Molecule: CN1CCc2c[nH]c3c2C1=CC(=O)C3=O [damirone B (3), damirone B]
- IC50 (PANC-1 cell line [1]; [5]): 19000 nM

Molecule: COc1cc([C@@H]2c3cc4c(cc3[C@@H](O[C@@H]3O[C@@H]5CO[C@@H](C)O[C@H]5[C@H](O)[C@H]3O)[C@H]3COC(=O)[C@H]23)OCO4)cc(OC)c1O [etoposide, reference compound]
- IC50 (PANC-1 cell line [1]; [6]): 390 nM

Molecule: Nc1ccn([C@@H]2O[C@H](CO)[C@@H](O)C2(F)F)c(=O)n1 [gemcitabine]
- IC50 (PANC-1 cell line [3]): 7200 nM

Molecule: CSc1c2c3c(n1C)C(=O)C(N)=C(Cl)C3=NCC2 [isobatzelline A]
- cytotoxicity against PANC-1 cells (words) (PANC-1 cell line [3]; literature surveys): moderate cytotoxicity

Molecule: Cn1cc2c3c1C(=O)C(N)=C(Cl)C3=NCC2 [isobatzelline C (19), isobatzelline C]
- cytotoxicity against PANC-1 cells (words) (PANC-1 cell line [3]; literature surveys, listed as 19): relatively inactive
- cytotoxicity against PANC-1 cells (words) (PANC-1 cell line [3]; literature surveys, listed as isobatzelline C): moderate cytotoxicity
- IC50 (PANC-1 cell line [3]): 10000 nM

Molecule: CSc1c2ccnc3c2c(n1C)C(=O)C(N)=C3Cl [isobatzelline D]
- cytotoxicity against PANC-1 cells (words) (PANC-1 cell line [3]; literature surveys): moderate cytotoxicity

Molecule: Cn1cc2c3c1C(=O)C(N)=CC3=NCC2 [makaluvamine A (1), makaluvamine A]
- IC50 (PANC-1 cell line [1]; [5]): 450 nM

Molecule: C[N+]1=C2C=C(N)C(=O)c3[nH]cc(c32)CC1.[Cl-] [makaluvamine C (2), makaluvamine C]
- fold decrease in PANC-1 potency (PP<) relative to makaluvamine J (9) (PANC-1 cell line [1]; ratio of PANC-1 IC50): 13.5 fold
- IC50 (PANC-1 cell line [1]; [5]): 730 nM
- IC50 (OVCAR-3): 240 nM

Molecule: Cn1cc2c3c1C(=O)C(N/C=C/c1ccc(O)cc1)=CC3=[N+](C)CC2 [makaluvamine G (8), makaluvamine G]
- IC50 (PANC-1 cell line [1]; [5]): 6200 nM

Molecule: Cn1cc2c3c1C(=O)C(N)=CC3=[N+](C)CC2.O=C([O-])C(F)(F)F [makaluvamine H (4), makaluvamine H]
- T/C % (tumor volume in treated/tumor volume in untreated) (KB xenografts): 38%
- fold decrease in PANC-1 potency (PP<) relative to makaluvamine A (1) (PANC-1 cell line [1]; ratio of PANC-1 IC50): 7.9 fold
- IC50 (PANC-1 cell line [1]; [5]): 3600 nM
- IC50 (OVCAR-5 [4]): 100 nM
- IC50 (OVCAR-3): 960 nM

Molecule: C[N+]1=C2C=C(NCCc3ccc(O)cc3)C(=O)c3[nH]cc(c32)CC1 [makaluvamine J (9), makaluvamine J]
- PANC-1 cytotoxic potency (words) (PANC-1 cell line [1]): most potent
- PANC-1 cytotoxic potency (words) (PANC-1 cell line [1]; listed as 9): most potent IC50 values
- IC50 (PANC-1 cell line [1]; [5]): 54 nM
- 2S10, concentration for 90% kill (10% survival) (HCT-116 cells; HCT-116, 2 h exposure, extrapolated): 3 µg/mL
- 24S10, concentration for 90% kill (10% survival) (HCT-116 cells; HCT-116, 24 h exposure): 400 ng/mL
- 120S10, concentration for 90% kill (10% survival) (HCT-116 cells; HCT-116, 120 h exposure): 30 ng/mL
- toxicity to HCT-116 cells (HCT-116 cells; two hour dosing schedule): Little toxicity
- IC50 (OVCAR-5 [2]): 120 nM

Molecule: Cn1cc2c3c1C(=O)C(NCCc1ccc(O)cc1)=CC3=NCC2 [makaluvamine K (10), makaluvamine K]
- fold decrease in PANC-1 potency (PP<) relative to makaluvamine A (1) (PANC-1 cell line [1]; ratio of PANC-1 IC50): 1.2 fold
- fold decrease in PANC-1 potency (PP<) relative to makaluvamine J (9) (PANC-1 cell line [1]; ratio of PANC-1 IC50): 10.4 fold
- IC50 (PANC-1 cell line [1]; [5]): 560 nM

Molecule: C[N+]1=C2C=C(N/C=C/c3ccc(O)cc3)C(=O)c3[nH]cc(c32)CC1.O=C([O-])C(F)(F)F [makaluvamine L (11), makaluvamine L]
- fold decrease in PANC-1 potency (PP<) relative to makaluvamine J (9) (PANC-1 cell line [1]; ratio of PANC-1 IC50): 35.0 fold
- IC50 (PANC-1 cell line [1]; [5]): 1900 nM

Molecule: Cn1cc2c3c1C(=O)C(NCCc1ccc(O)cc1)=CC3=[N+](C)CC2.[Cl-] [makaluvamine P (12), makaluvamine P]
- fold increase in PANC-1 potency (PP>) relative to makaluvamine H (4) (PANC-1 cell line [1]; ratio of PANC-1 IC50, '>' in PP codes an increase in potency): 12.3
- IC50 (PANC-1 cell line [1]; [5]): 300 nM

Molecule: N=C1C(Cl)=C(N)C(=O)c2[nH]cc(C(O)CO)c21 (stereo not drawn) [secobatzelline A]
- cytotoxicity against PANC-1 cells (words) (PANC-1 cell line [3]; literature surveys): moderate cytotoxicity

Molecule: COc1cc([C@@H]2c3cc4c(cc3[C@@H](O[C@@H]3O[C@@H]5CO[C@@H](c6cccs6)O[C@H]5[C@H](O)[C@H]3O)[C@H]3COC(=O)[C@H]23)OCO4)cc(OC)c1O [teniposide, reference compound]
- IC50 (PANC-1 cell line [1]; [6]): 40 nM
- IC50 (PANC-1 cell line [1]; [5]): 41 nM

Molecule: damirone D [damirone D (6)]
- IC50 (PANC-1 cell line [1]; [5]): 3400 nM

Molecule: makaluvamine D [makaluvamine D (7)]
- IC50 (PANC-1 cell line [1]; [5]): 290 nM

Molecule: makaluvamine I [reference compound]
- T/C % (tumor volume in treated/tumor volume in untreated) (KB xenografts): 34%
